Assay results as given in patent US5914319A, “Antithrombotic agents” (Eli Lilly and Company, priority 1995, dated 1999).
Where a name gives a salt, the structure may show the parent alone. Read-outs that look alike come from different tables or passages of the source.

Tests used:
human thrombin = human thrombin (Homo sapiens, UniProt P00734); assay: Inhibition of the amidase activity of thrombin (Kass); type: biochemical
Human plasma [1] = assay: Human plasma anticoagulation, thrombin time (TT); type: biochemical; conditions: concentration required to double the thrombin time, linear extrapolation
In short: (§1)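 Values are concentrations estimated by linear extrapolation to double the clotting time in human plasma containing test compound across a wide range. Thrombin time was triggered with bovine thrombin at 10 NIH units/mL plus saline, and prothrombin time with Thromboplastin-C plus saline. For APTT, plasma sat with Actin reagent for 120 seconds before 0.02M CaCl2.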

Human plasma [2] = assay: Human plasma anticoagulation, activated partial thromboplastin time (APTT); type: biochemical; conditions: concentration required to double the APTT, linear extrapolation
In short: as §1

Human plasma [3] = assay: Human plasma anticoagulation, prothrombin time (PT); type: biochemical; conditions: concentration required to double the PT, linear extrapolation
In short: as §1

[4] = Index of bioavailability (% Relative Activity from plasma TT time course); type: in vivo; conditions: dose-adjusted AUC of plasma TT time course, p.o. versus i.v. bolus
Procedure: Parke Davis) at 37° C. […] Assays are done in duplicate and averaged. […] Each sample population represented alternating sequential time points.

[5] = early clinical studies, Simoons et al., Circulation, 90, I-231 (1994); cited from earlier work
factor Xa = target: T1, factor Xa (Homo sapiens, UniProt P00742); assay: Kass with other serine proteases: factor Xa; type: biochemical; conditions: substrate N-Benzoyl-Ile-Glu-Gly-Arg-p-nitroanilide
T1 construct: Human factors X, Xa, IXa, XIa, and XIIa are purchased; purchased Enzyme Research Laboratories, South Bend, Ind
From the text: (§3) Chromogenic substrates: N-Benzoyl-Ile-Glu-Gly-Arg-p-nitroanilide (for factor Xa); N-Cbz-D-Arg-Gly-Arg-p-nitroanilide (for factor IXa assay as the factor Xa substrate); Pyroglutamyl-Pro-Arg-p-nitroanilide (for Factor XIa and for aPC); H-D-Pro-Phe-Arg-p-nitroanilide (for factor XIIa); and Pyroglutamyl-Gly-Arg-p-nitroanilide (for urokinase); are purchased from KabiVitrum, Stockholm, Sweden, or from Midwest Biotech, Fishers, Ind. Bovine trypsin is purchased from Worthington Biochemicals, Freehold, N.J., and human plasma kallikrein from Kabi Vitrum, Stockholm, Sweden. Chromogenic substrate H-D-Pro-Phe-Arg-p-nitroanilide for plasma kallikrein is purchased from Kabi Vitrum, Stockholm, Sweden. […]

Bovine trypsin = target: T2, Bovine trypsin (Bos taurus, UniProt P00760); assay: Kass with other serine proteases: trypsin; type: biochemical; conditions: substrate N-Benzoyl-Phe-Val-Arg-p-nitroanilide
T2 construct: Bovine trypsin is purchased from Worthington Biochemicals; purchased Worthington Biochemicals, Freehold, N.J
T2 sequence (P00760 24-246): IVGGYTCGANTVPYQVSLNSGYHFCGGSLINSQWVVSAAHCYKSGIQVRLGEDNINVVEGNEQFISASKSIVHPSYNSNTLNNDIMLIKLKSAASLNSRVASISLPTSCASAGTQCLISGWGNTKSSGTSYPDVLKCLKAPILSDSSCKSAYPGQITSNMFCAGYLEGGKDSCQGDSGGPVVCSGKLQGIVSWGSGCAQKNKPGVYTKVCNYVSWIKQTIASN
From the text: as §3

Human plasmin = target: T3, Human plasmin (Homo sapiens, UniProt P00747); assay: Kass with fibrinolytic system proteases: plasmin; type: biochemical; conditions: substrate H-D-Val-Leu-Lys-p-nitroanilide
T3 construct: Human plasmin is purchased from Boehringer Mannheim; purchased Boehringer Mannheim, Indianapolis, Ind
Procedure: (§2) By substantially following the procedures described above for human thrombin, and using other human blood coagulation system serine proteases and proteases of the fibrinolytic system with the appropriate chromogenic substrates, identified below, selectivity of the compounds of the present invention with respect to the coagulation factor serine proteases and with respect to the fibrinolytic system serine proteases are evaluated as well as their substantial lack of interference with serine proteases of the fibrinolytic system. […] This would be important to the therapeutic use of such agents as an adjunct to streptokinase, t-PA or urokinase thrombolytic therapy and to the use of such agents as an endogenous fibrinolysis-sparing (with respect to t-PA and urokinase) antithrombotic agent. In addition to the lack of interference with the amidase activity of the fibrinolytic proteases, such fibrinolytic system sparing can be studied by the use of human plasma clots and their lysis by the respective fibrinolytic plasminogen activators.

[6] = target: T4, tissue plasminogen activator (t-PA) (Homo sapiens, UniProt P00750); assay: Kass with fibrinolytic system proteases: t-PA; type: biochemical; conditions: substrate H-D-Ile-Pro-Arg-p-nitroanilide
T4 construct: purchased American Diagnostica, Greenwich, Conn
Procedure: as §2

[7] = mean over a range of test compound concentrations, […]

T4 sequence (P00750 36-562): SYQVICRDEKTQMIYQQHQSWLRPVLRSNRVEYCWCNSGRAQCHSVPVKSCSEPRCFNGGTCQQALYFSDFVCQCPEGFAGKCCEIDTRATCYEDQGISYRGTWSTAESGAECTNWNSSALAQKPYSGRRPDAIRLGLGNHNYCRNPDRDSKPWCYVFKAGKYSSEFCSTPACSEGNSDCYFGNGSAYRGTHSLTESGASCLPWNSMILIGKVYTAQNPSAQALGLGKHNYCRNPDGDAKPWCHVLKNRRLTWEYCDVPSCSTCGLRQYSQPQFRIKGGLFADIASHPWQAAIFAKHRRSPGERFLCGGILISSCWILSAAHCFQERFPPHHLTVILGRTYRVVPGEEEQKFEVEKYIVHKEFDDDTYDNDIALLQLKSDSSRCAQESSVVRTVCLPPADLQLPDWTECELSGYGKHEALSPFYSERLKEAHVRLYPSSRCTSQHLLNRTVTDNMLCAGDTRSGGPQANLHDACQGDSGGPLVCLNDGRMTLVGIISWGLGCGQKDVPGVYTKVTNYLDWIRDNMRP
T1 sequence (P00742 235-488 limits assumed): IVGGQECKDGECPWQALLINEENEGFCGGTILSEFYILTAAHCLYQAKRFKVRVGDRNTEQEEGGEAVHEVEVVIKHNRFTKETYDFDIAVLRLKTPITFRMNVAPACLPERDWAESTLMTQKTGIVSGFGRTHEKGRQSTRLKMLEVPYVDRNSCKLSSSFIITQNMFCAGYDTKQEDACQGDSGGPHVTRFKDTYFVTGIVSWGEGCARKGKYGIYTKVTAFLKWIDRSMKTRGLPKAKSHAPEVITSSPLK
T1 sequence (P00742 41-179 partner limits assumed): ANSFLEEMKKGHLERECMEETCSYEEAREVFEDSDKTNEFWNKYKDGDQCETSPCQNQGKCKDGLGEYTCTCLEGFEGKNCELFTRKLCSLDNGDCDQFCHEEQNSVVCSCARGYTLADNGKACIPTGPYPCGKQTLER
T3 sequence (P00747 581-810 limits assumed): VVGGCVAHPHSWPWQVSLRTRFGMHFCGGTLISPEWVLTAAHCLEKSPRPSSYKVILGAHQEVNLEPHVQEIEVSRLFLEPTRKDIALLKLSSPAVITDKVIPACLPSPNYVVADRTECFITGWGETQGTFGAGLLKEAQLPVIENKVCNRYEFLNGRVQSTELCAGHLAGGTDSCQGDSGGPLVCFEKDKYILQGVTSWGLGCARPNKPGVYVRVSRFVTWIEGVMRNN
T3 sequence (P00747 97-580 partner limits assumed): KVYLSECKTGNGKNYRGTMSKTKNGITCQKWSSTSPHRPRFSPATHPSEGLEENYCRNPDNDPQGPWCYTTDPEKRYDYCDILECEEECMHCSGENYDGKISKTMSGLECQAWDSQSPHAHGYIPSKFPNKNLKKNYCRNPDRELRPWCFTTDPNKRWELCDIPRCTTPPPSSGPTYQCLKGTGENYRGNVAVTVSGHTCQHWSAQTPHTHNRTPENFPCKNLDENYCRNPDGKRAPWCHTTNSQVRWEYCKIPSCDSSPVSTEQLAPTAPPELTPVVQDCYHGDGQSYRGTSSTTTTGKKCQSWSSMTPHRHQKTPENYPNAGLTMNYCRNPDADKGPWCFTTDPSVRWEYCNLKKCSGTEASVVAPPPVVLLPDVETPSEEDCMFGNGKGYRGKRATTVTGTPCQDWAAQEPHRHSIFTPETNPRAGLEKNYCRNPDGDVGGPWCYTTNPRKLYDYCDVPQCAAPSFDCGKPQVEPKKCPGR

Compound | Kass × 10^6 (L/mole) Human Thrombin (human thrombin; [7]) | Human Plasma Anticoagulation 2× Clotting time (ng/mL) TT (Human plasma [1]) | Human Plasma Anticoagulation 2× Clotting time (ng/mL) APTT (Human plasma [2]) | Human Plasma Anticoagulation 2× Clotting time (ng/mL) PT (Human plasma [3]) | Kass × 10^6 (L/mole) Human Thrombin (human thrombin) | % oral/i.v. activity (Rat) [4] | anticoagulant in man [5] | Kass × 10^6 (L/mole) Xa (factor Xa) | Kass × 10^6 (L/mole) Trypsin (Bovine trypsin) | Kass × 10^6 (L/mole) Plasmin (Human plasmin) | Kass × 10^6 (L/mole) t-PA [6]
CCS(=O)(=O)N[C@H](CC1CCCCC1)C(=O)N1CCC[C@H]1C(=O)NCc1ccc(N)cc1F [Example 82, EtSO2 -D-Cha-Pro-4-NHCH2 -3-F-C6 H3 NH2.HCl] | 5.0 × 10^6 L/mole | 130 ng/mL | 3,800 ng/mL | 3,000 ng/mL |  |  |  |  |  |  | 
Cl.Cl.N=C(N)c1ccc(CNC(=O)C2CC3CCCCC3N2C(=O)C2NCCC3CCCCC32)cc1 [Example 42, D-1-Piq-cis-Ohi-p-NHCH2 C6 H4 C(NH)NH2.2HCl] | 38. × 10^6 L/mole | 20 ng/mL | 270 ng/mL | 320 ng/mL |  |  |  |  |  |  | 
Cl.Cl.N=C(N)c1ccc(CNC(=O)CN(CCc2ccccc2)C(=O)[C@H]2CCCCN2)cc1 [Example 21, D-hPro-N(PhCH2CH2)Gly-p-NHCH2 C6 H4 C(NH)NH2.2HCl] | 3.6 × 10^6 L/mole | 160 ng/mL | 2,000 ng/mL | 1,000 ng/mL |  |  |  |  |  |  | 
Nc1ccc(CNC(=O)[C@@H]2CCCN2C(=O)[C@@H](CC2CCCCC2)NCC(=O)O)c(F)c1 [Example 64, HO2 CCH2 -D-Cha-Pro-4-NHCH2 -3-F-C6 H3 NH2.HCl] | 15 × 10^6 L/mole | 23 ng/mL | 900 ng/mL | 650 ng/mL |  |  |  |  |  |  | 
N=C(N)c1ccc(CNC(=O)[C@@H]2CCCN2C(=O)[C@@H](CCc2ccccc2)NCC(=O)O)cc1 [Example 87, HOOCCH2 -D-hPhe-Pro-p-NHCH2 C6 H4 C(NH)NH2.HCl] | 30 × 10^6 L/mole | 9 ng/mL | 260 ng/mL | 310 ng/mL |  |  |  |  |  |  | 
EtSO2 -Phg-cis-Ohi-p-NHCH2 C6 H4 C(NH)NH2.HCl [Example 44] |  | 4. ng/mL | 100 ng/mL | 170 ng/mL | 630 |  |  |  |  |  | 
CCS(=O)(=O)N[C@H](Cc1ccccc1)C(=O)N1CCC[C@H]1C(=O)NCCCCN=C(N)N.Cl [Example 1, EtSO2 -D-Phe-Pro-Agm.HCl] |  | 250 ng/mL |  |  |  | 8% |  |  |  |  | 
N=C(N)c1ccc(CNC(=O)[C@@H]2C[C@@H]3CCCC[C@@H]3N2C(=O)[C@H]2CCCCN2)cc1 [Example 20, D-hPro-Ohi-p-NHCH2 C6 H4 C(NH)NH2.3HCl] | 10 × 10^6 L/mole | 62 ng/mL | 550 ng/mL | 600 ng/mL |  |  |  |  |  |  | 
CN[C@H](Cc1ccccc1)C(=O)N1CCC[C@H]1C(=O)N[C@H](C=O)CCCNC(=N)N.O=S(=O)(O)O [D-MePhe-Pro-Arg-H sulfate] |  |  |  |  |  |  | anticoagulant in man |  |  |  | 
N=C(N)c1ccc(CNC(=O)[C@@H]2CCCN2C(=O)[C@@H](CC2CCCCC2)NCC(=O)O)cc1 [Example 48, HOOCCH2 -D-Cha-Pro-p-NHCH2 C6 H4 C(NH)NH2.HCl] | 4,100 × 10^6 L/mole | 2. ng/mL | 33 ng/mL | 59 ng/mL |  |  |  | 5.5 × 10^6 L/mole | 250. × 10^6 L/mole | 0.43 × 10^6 L/mole | 0.05 × 10^6 L/mole
Cl.Cl.Cl.N=C(N)NCCCCNC(=O)[C@@H]1CCCN1C(=O)[C@@H]1NCC[C@H]2CCCC[C@H]21 [Example 61, (4aR,8aR)-Perhydoisoquinoline-1(R)-carbonyl-Pro-Agm.3HCl] | 63 × 10^6 L/mole | 45 ng/mL | 679 ng/mL | 756 ng/mL |  |  |  |  |  |  | 
CCS(=O)(=O)N[C@H](CC1CCCCC1)C(=O)N1CCC[C@H]1C(=O)NCc1ccc(C(=N)N)cc1F.Cl [Example 93, EtSO2 -D-Cha-Pro-4-NHCH2 -3-F-benzamidine.HCl] | 970 × 10^6 L/mole | 5.9 ng/mL | 35 ng/mL | 140 ng/mL |  |  |  |  |  |  | 
